Results taken from PubChem BioAssay (NCI).
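Step 1: Grow cells in 96-well plates. Step 2: Expose to compound for 48 hours at 5 concentrations. Step 3: Interpolate endpoints linearly; if unreached, use highest concentration. TGI is the concentration that stops growth completely.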

Tests used:
Test in all cases: NCI anticancer screen, dose series, 48 h
SF-268 CNS = system: SF-268 CNS
UO-31 renal = system: UO-31 renal
TK-10 renal = system: TK-10 renal
KM20L2 colon = system: KM20L2 colon
HOP-92 NSCLC = system: HOP-92 NSCLC
786-0 renal = system: 786-0 renal
DMS 273 small cell lung = system: DMS 273 small cell lung
M14 melanoma = system: M14 melanoma
RPMI-8226 leukemia = system: RPMI-8226 leukemia
NCI-H522 lung = system: NCI-H522 lung
SF-539 CNS = system: SF-539 CNS
SF-295 CNS = system: SF-295 CNS
NCI-H460 lung = system: NCI-H460 lung
IGROV1 ovarian = system: IGROV1 ovarian
KM12 colon = system: KM12 colon
OVCAR-4 ovarian = system: OVCAR-4 ovarian
CAKI-1 renal = system: CAKI-1 renal
LOX IMVI melanoma = system: LOX IMVI melanoma
CCRF-CEM leukemia = system: CCRF-CEM leukemia
A498 renal = system: A498 renal
OVCAR-5 ovarian = system: OVCAR-5 ovarian
SNB-19 CNS = system: SNB-19 CNS
SK-OV-3 ovarian = system: SK-OV-3 ovarian
U251 CNS = system: U251 CNS
HT29 colon = system: HT29 colon
HL-60(TB) leukemia = system: HL-60(TB) leukemia
LXFL 529 NSCLC = system: LXFL 529 NSCLC
SW-620 colon = system: SW-620 colon
OVCAR-3 ovarian = system: OVCAR-3 ovarian
HCT-15 colon = system: HCT-15 colon
HOP-18 NSCLC = system: HOP-18 NSCLC
DMS 114 small cell lung = system: DMS 114 small cell lung
SK-MEL-28 melanoma = system: SK-MEL-28 melanoma
MALME-3M melanoma = system: MALME-3M melanoma
NCI-H23 lung = system: NCI-H23 lung
HOP-62 NSCLC = system: HOP-62 NSCLC
UACC-257 melanoma = system: UACC-257 melanoma
COLO 205 colon = system: COLO 205 colon
RXF 393 renal = system: RXF 393 renal
SK-MEL-5 melanoma = system: SK-MEL-5 melanoma
NCI-H226 lung = system: NCI-H226 lung
OVCAR-8 ovarian = system: OVCAR-8 ovarian
M19-MEL melanoma = system: M19-MEL melanoma
K-562 leukemia = system: K-562 leukemia
EKVX NSCLC = system: EKVX NSCLC
MOLT-4 leukemia = system: MOLT-4 leukemia
SNB-75 CNS = system: SNB-75 CNS
SK-MEL-2 melanoma = system: SK-MEL-2 melanoma
UACC-62 melanoma = system: UACC-62 melanoma
A549 NSCLC = system: A549 NSCLC
SN12C renal = system: SN12C renal
ACHN renal = system: ACHN renal
XF 498 CNS = system: XF 498 CNS
SR leukemia = system: SR leukemia
HCT-116 colon = system: HCT-116 colon
SNB-78 CNS = system: SNB-78 CNS

SMILES: O=C(Cn1ccnc1[N+](=O)[O-])c1ccc(F)cc1
- TGI (SF-268 CNS): > 100 µM
- TGI (UO-31 renal): > 100 µM
- TGI (TK-10 renal): > 100 µM
- TGI (KM20L2 colon): > 100 µM
- TGI (HOP-92 NSCLC): > 100 µM
- TGI (786-0 renal): > 100 µM
- TGI (DMS 273 small cell lung): > 100 µM
- TGI (M14 melanoma): > 100 µM
- TGI (RPMI-8226 leukemia): > 100 µM
- TGI (NCI-H522 lung): > 100 µM
- TGI (SF-539 CNS): > 100 µM
- TGI (SF-295 CNS): > 100 µM
- TGI (NCI-H460 lung): > 100 µM
- TGI (IGROV1 ovarian): > 100 µM
- TGI (KM12 colon): > 100 µM
- TGI (OVCAR-4 ovarian): > 100 µM
- TGI (CAKI-1 renal): > 100 µM
- TGI (LOX IMVI melanoma): > 100 µM
- TGI (CCRF-CEM leukemia): > 100 µM
- TGI (A498 renal): > 100 µM
- TGI (OVCAR-5 ovarian): > 100 µM
- TGI (SNB-19 CNS): > 100 µM
- TGI (SK-OV-3 ovarian): > 100 µM
- TGI (U251 CNS): > 100 µM
- TGI (HT29 colon): > 100 µM
- TGI (HL-60(TB) leukemia): > 100 µM
- TGI (LXFL 529 NSCLC): > 100 µM
- TGI (SW-620 colon): > 100 µM
- TGI (OVCAR-3 ovarian): > 100 µM
- TGI (HCT-15 colon): > 100 µM
- TGI (HOP-18 NSCLC): > 100 µM
- TGI (DMS 114 small cell lung): > 100 µM
- TGI (SK-MEL-28 melanoma): > 100 µM
- TGI (MALME-3M melanoma): > 100 µM
- TGI (NCI-H23 lung): > 100 µM
- TGI (HOP-62 NSCLC): > 100 µM
- TGI (UACC-257 melanoma): > 100 µM
- TGI (COLO 205 colon): > 100 µM
- TGI (RXF 393 renal): > 100 µM
- TGI (SK-MEL-5 melanoma): > 100 µM
- TGI (NCI-H226 lung): > 100 µM
- TGI (OVCAR-8 ovarian): > 100 µM
- TGI (M19-MEL melanoma): > 100 µM
- TGI (K-562 leukemia): > 100 µM
- TGI (EKVX NSCLC): > 100 µM
- TGI (MOLT-4 leukemia): > 100 µM
- TGI (SNB-75 CNS): > 100 µM
- TGI (SK-MEL-2 melanoma): > 100 µM
- TGI (UACC-62 melanoma): > 100 µM
- TGI (A549 NSCLC): > 100 µM
- TGI (SN12C renal): > 100 µM
- TGI (ACHN renal): > 100 µM
- TGI (XF 498 CNS): > 100 µM

SMILES: CC1(Cl)CCC2(CC(Br)=CC3OC32C)CC1Br (configuration not stated)
- TGI (SR leukemia): 55.8 µM
- TGI (SF-268 CNS): 50.1 µM
- TGI (UO-31 renal): 66.6 µM
- TGI (TK-10 renal): > 100 µM
- TGI (HOP-92 NSCLC): 78.8 µM
- TGI (M14 melanoma): > 100 µM
- TGI (NCI-H522 lung): 55.5 µM
- TGI (SF-295 CNS): 57.6 µM
- TGI (NCI-H460 lung): 71.1 µM
- TGI (IGROV1 ovarian): > 100 µM
- TGI (KM12 colon): > 100 µM
- TGI (HCT-116 colon): 40.2 µM
- TGI (CCRF-CEM leukemia): 53.5 µM
- TGI (A498 renal): 68.8 µM
- TGI (OVCAR-5 ovarian): > 100 µM
- TGI (SNB-19 CNS): > 100 µM
- TGI (SK-OV-3 ovarian): > 100 µM
- TGI (U251 CNS): 41.8 µM
- TGI (HT29 colon): 57 µM
- TGI (HL-60(TB) leukemia): 38.7 µM
- TGI (SNB-78 CNS): 86.6 µM
- TGI (DMS 114 small cell lung): 83.2 µM
- TGI (SK-MEL-28 melanoma): 69.9 µM
- TGI (NCI-H23 lung): 49.9 µM
- TGI (HOP-62 NSCLC): 87.4 µM
- TGI (UACC-257 melanoma): 42.4 µM
- TGI (RXF 393 renal): 40.8 µM
- TGI (NCI-H226 lung): 47.3 µM
- TGI (OVCAR-8 ovarian): 91.7 µM
- TGI (M19-MEL melanoma): 81.2 µM
- TGI (EKVX NSCLC): > 100 µM
- TGI (MOLT-4 leukemia): 52.4 µM
- TGI (UACC-62 melanoma): 42.7 µM
- TGI (A549 NSCLC): > 100 µM
